Data taken from PubChem BioAssay (NCI).
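Five concentrations, 48 hours, 96-well plates. GI50: concentration for 50% inhibition of growth. TGI: total growth inhibition.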

What was measured:
Assay in all cases: DTP human tumour cell line panel, 48 h
[1] = tested on: LOX IMVI melanoma
[2] = tested on: NCI-H522 lung
[3] = tested on: SR leukemia
[4] = tested on: A549 NSCLC
[5] = tested on: RXF 393 renal
[6] = tested on: COLO 205 colon
[7] = tested on: MALME-3M melanoma
[8] = tested on: MDA-MB-231 breast
[9] = tested on: A498 renal
[10] = tested on: CCRF-CEM leukemia

`O=C1c2cccnc2C(=O)c2c1c(C(=O)OCCCN1CCOCC1)c1ccccn21` showed a GI50 [1] of less than 0.01 µM, a TGI [1] of 0.0152 µM and a GI50 [2] of less than 0.01 µM. It also gave a TGI [2] of less than 0.0127 µM, a GI50 [3] of less than 0.01 µM and a TGI [3] greater than 100 µM. For the same compound, the GI50 [4] was less than 0.01 µM, the TGI [4] was 0.072 µM and the GI50 [5] was less than 0.01 µM. It also gave a TGI [5] of 0.0235 µM, a GI50 [6] of 0.0553 µM and a TGI [6] of 0.308 µM. It also gave a GI50 [7] of 0.0125 µM, a TGI [7] of 1.71 µM and a GI50 [8] of 1.32 µM. It also gave a TGI [8] of 15.8 µM, a GI50 [9] of 0.0295 µM and a TGI [9] of 2.09 µM. The GI50 [10] was 0.0493 µM.
`C/C(=C(/c1ccc(O)cc1)c1ccc(OCCN2CCCC2)cc1)c1ccccc1` showed a GI50 [1] of 1.72 µM, a TGI [1] of 3.29 µM and a GI50 [2] of 2.1 µM. The TGI [2] was 5.09 µM, the GI50 [3] was 1.93 µM and the TGI [3] was 5.75 µM. The GI50 [4] was 3.53 µM, the TGI [4] was 11 µM and the GI50 [5] was 2 µM. For the same compound, the TGI [5] was 5.05 µM, the GI50 [6] was 1.7 µM and the TGI [6] was 3.38 µM. The GI50 [7] was 1.7 µM, the TGI [7] was 3.41 µM and the GI50 [8] was 3.51 µM. The TGI [8] was 8.4 µM, the GI50 [9] was 1.67 µM and the TGI [9] was 8.49 µM. It also gave a GI50 [10] of 3.2 µM and a TGI [10] of 9.85 µM.
`Cc1nn(-c2ccccc2)c2c1C1C(=C(c3ccc(Cl)cc3)N2)C(=O)Nc2ccccc21` (centres undefined) gave a GI50 [1] of 3.54 µM, a TGI [1] of 12 µM and a GI50 [2] of 1.78 µM. It also gave a TGI [2] of 3.86 µM, a GI50 [3] of 2.15 µM and a TGI [3] of 5.58 µM. The GI50 [4] was 3.12 µM, the TGI [4] was greater than 100 µM and the GI50 [5] was 2.19 µM. The TGI [5] was 6.7 µM, the GI50 [6] was 2.49 µM and the TGI [6] was 5.63 µM. For the same compound, the GI50 [7] was 2.68 µM, the TGI [7] was 21.2 µM and the GI50 [8] was 2.41 µM. For the same compound, the TGI [8] was 8.74 µM, the GI50 [9] was 4.01 µM and the TGI [9] was 26.4 µM. It also gave a GI50 [10] of 2.66 µM and a TGI [10] of 8.67 µM.
Work on `O=c1oc(-c2ccc(O)c(O)c2)cc2cc(O)cc(O)c12` yielded a GI50 [1] of 60.8 µM, a TGI [1] greater than 100 µM and a GI50 [2] of 27.3 µM. For the same compound, the TGI [2] was greater than 100 µM, the GI50 [3] was 8.26 µM and the TGI [3] was greater than 100 µM. It also gave a GI50 [4] of 34.1 µM, a TGI [4] greater than 100 µM and a GI50 [5] of 35.9 µM. It also gave a TGI [5] greater than 100 µM, a GI50 [6] of 41.8 µM and a TGI [6] greater than 100 µM. It also gave a GI50 [7] of 57.5 µM, a TGI [7] greater than 100 µM and a GI50 [8] of 44.7 µM. The TGI [8] was greater than 100 µM, the GI50 [9] was 27.3 µM and the TGI [9] was 56.7 µM. The GI50 [10] was 3.39 µM and the TGI [10] was greater than 100 µM.
`CC1(CC(=O)O)OC2CCCCCC2O1` (centres undefined) (tested in a mixture with another compound) was tested, and the TGI [1] was greater than 100 µM, the TGI [2] was greater than 100 µM and the TGI [3] was greater than 100 µM. It also gave a TGI [4] greater than 100 µM, a TGI [5] greater than 100 µM and a TGI [6] greater than 100 µM. The TGI [7] was greater than 100 µM, the TGI [8] was greater than 100 µM and the TGI [9] was greater than 100 µM. For the same compound, the TGI [10] was 84.5 µM.
Compound `COc1ccccc1C(=O)c1cnc(NC2CCN(S(C)(=O)=O)CC2)nc1N` has a GI50 [1] of 6.25 µM, a TGI [1] greater than 25 µM and a GI50 [2] greater than 25 µM. It also gave a TGI [2] greater than 25 µM, a GI50 [3] of 2 µM and a TGI [3] greater than 19.5 µM. It also gave a GI50 [4] of 4.68 µM, a TGI [4] greater than 25 µM and a GI50 [5] of 4.4 µM. The TGI [5] was 10.5 µM, the GI50 [6] was 4.37 µM and the TGI [6] was greater than 15.4 µM. For the same compound, the GI50 [7] was greater than 16.4 µM, the TGI [7] was greater than 25 µM and the GI50 [8] was 7.27 µM. The TGI [8] was greater than 25 µM, the GI50 [9] was 6 µM and the TGI [9] was 22 µM. It also gave a GI50 [10] of 7.04 µM and a TGI [10] greater than 24.1 µM.
`Oc1cccc(-c2nc3ccccc3s2)c1` gave a TGI [1] of 77 µM, a TGI [2] of 51 µM and a TGI [3] greater than 100 µM. For the same compound, the TGI [4] was greater than 100 µM, the TGI [5] was greater than 100 µM and the TGI [6] was greater than 100 µM. The TGI [7] was 31.1 µM, the TGI [8] was 56.2 µM and the TGI [9] was greater than 100 µM. It also gave a TGI [10] greater than 100 µM.
`Nc1ncnc2occ(-c3ccc(NC(=O)Nc4cc(C(F)(F)F)cc(C(F)(F)F)c4)cc3)c12` was tested, and the GI50 [1] was 3.27 µM, the TGI [1] was 6.83 µM and the GI50 [2] was 2.55 µM. It also gave a TGI [2] of 5.67 µM, a GI50 [3] of 2.03 µM and a TGI [3] of 15.2 µM. For the same compound, the GI50 [4] was 3 µM, the TGI [4] was 7.18 µM and the GI50 [5] was 1.24 µM. It also gave a TGI [5] of 4.51 µM, a GI50 [6] of 4.23 µM and a TGI [6] of 7.96 µM. For the same compound, the GI50 [7] was 4.09 µM, the TGI [7] was 9.27 µM and the GI50 [8] was 4.3 µM. It also gave a TGI [8] of 9.09 µM, a GI50 [9] of 0.144 µM and a TGI [9] of 1.62 µM. It also gave a GI50 [10] of 4.5 µM and a TGI [10] of 19.2 µM.
`O=C(N[C@@H]1CCCc2ccccc21)[C@H](CCC(=O)N1CCN(C2CCCCC2)CC1)N1C(=O)[C@@H](N2C(=O)OC[C@@H]2c2ccccc2)[C@H]1/C=C/c1ccccc1` gave a GI50 [1] of 1.68 µM, a TGI [1] of 3.41 µM and a GI50 [2] of 1.76 µM. For the same compound, the TGI [2] was 4.11 µM, the GI50 [3] was 2.68 µM and the TGI [3] was greater than 100 µM. It also gave a GI50 [4] of 2.6 µM, a TGI [4] of 14.8 µM and a GI50 [5] of 1.71 µM. For the same compound, the TGI [5] was 3.34 µM, the GI50 [6] was 1.59 µM and the TGI [6] was 3.52 µM. For the same compound, the GI50 [7] was 1.63 µM, the TGI [7] was 3.15 µM and the GI50 [8] was 1.89 µM. For the same compound, the TGI [8] was 4.12 µM, the GI50 [9] was 1.76 µM and the TGI [9] was 5.3 µM. The GI50 [10] was 2.83 µM and the TGI [10] was 8.87 µM.
